In ChEMBL document CHEMBL3045814, “Antifungal activity of Hinokitiol-related compounds on wood-rotting fungi and their insecticidal activities” (2000):
Values after ≈ are worked out from the molar mass of the structure shown. Active and inactive are the calls of the source. The rule behind the calls is not given here.

Columns and labels:
Type in all cases: functional
Fomitopsis dickinsii = assay: Antifungal activity against Daedalea dickinsii IFO-4979 assessed as growth inhibition after 7 days by agar dilution method; details: for MIC: IFO-4979, 168 h
Trametes versicolor = assay: Antifungal activity against Trametes versicolor IFO-4940 assessed as growth inhibition after 7 days by agar dilution method; details: for MIC: IFO-4940, 168 h
Trametes coccinea = assay: Antifungal activity against Pycnoporus coccineus IFO-4924 assessed as growth inhibition after 7 days by agar dilution method; details: for MIC: IFO-4924, 168 h
Coptotermes formosanus [1] = assay: Insecticidal activity against Coptotermes formosanus assessed as mortality after 24 to 48 hr
Tyrophagus putrescentiae [2] = assay: Insecticidal activity against Tyrophagus putrescentiae assessed as mortality after 24 hr by clip method
Lenzites betulinus = assay: Antifungal activity against Lenzites betulinus IFO-4964 assessed as growth inhibition after 7 days by agar dilution method; details: for MIC: IFO-4964, 168 h
Schizophyllum commune = assay: Antifungal activity against Schizophyllum commune IFO-4928 assessed as growth inhibition after 7 days by agar dilution method; details: for MIC: IFO-4928, 168 h
Coptotermes formosanus [3] = assay: Insecticidal activity against Coptotermes formosanus assessed as mortality at 1 g/m2 after 48 hr relative to control
Coptotermes formosanus [4] = assay: Insecticidal activity against Coptotermes formosanus assessed as mortality at 0.1 g/m2 after 48 hr relative to control
Tyrophagus putrescentiae [5] = assay: Insecticidal activity against Tyrophagus putrescentiae assessed as mortality at 0.5 g/m2 after 24 hr by clip method relative to control
Tyrophagus putrescentiae [6] = assay: Insecticidal activity against Tyrophagus putrescentiae assessed as mortality at 0.1 g/m2 after 24 hr by clip method relative to control
Tyrophagus putrescentiae [7] = assay: Insecticidal activity against Tyrophagus putrescentiae assessed as mortality at 0.2 g/m2 after 24 hr by clip method relative to control
Coptotermes formosanus [8] = assay: Insecticidal activity against Coptotermes formosanus assessed as mortality at 0.05 g/m2 after 24 hr relative to control
Coptotermes formosanus [9] = assay: Insecticidal activity against Coptotermes formosanus assessed as mortality at 0.1 g/m2 after 24 hr relative to control
Coptotermes formosanus [10] = assay: Insecticidal activity against Coptotermes formosanus assessed as mortality at 0.02 g/m2 after 48 hr relative to control
Coptotermes formosanus [11] = assay: Insecticidal activity against Coptotermes formosanus assessed as mortality at 0.2 g/m2 after 48 hr relative to control
Coptotermes formosanus [12] = assay: Insecticidal activity against Coptotermes formosanus assessed as mortality at 0.02 g/m2 after 24 hr relative to control
Coptotermes formosanus [13] = assay: Insecticidal activity against Coptotermes formosanus assessed as mortality at 0.05 g/m2 after 48 hr relative to control
Tyrophagus putrescentiae [14] = assay: Insecticidal activity against Tyrophagus putrescentiae assessed as mortality at 0.02 g/m2 after 24 hr by clip method relative to control
Coptotermes formosanus [15] = assay: Insecticidal activity against Coptotermes formosanus assessed as mortality at 1 g/m2 after 24 hr relative to control
Coptotermes formosanus [16] = assay: Insecticidal activity against Coptotermes formosanus assessed as mortality at 0.01 g/m2 after 24 hr relative to control
Coptotermes formosanus [17] = assay: Insecticidal activity against Coptotermes formosanus assessed as mortality at 0.2 g/m2 after 24 hr relative to control
Tyrophagus putrescentiae [18] = assay: Insecticidal activity against Tyrophagus putrescentiae assessed as mortality at 1 g/m2 after 24 hr by clip method relative to control
Tyrophagus putrescentiae [19] = assay: Insecticidal activity against Tyrophagus putrescentiae assessed as mortality at 0.05 g/m2 after 24 hr by clip method relative to control
Tyrophagus putrescentiae [20] = assay: Insecticidal activity against Tyrophagus putrescentiae assessed as mortality at 0.01 g/m2 after 24 hr by clip method relative to control
Coptotermes formosanus [21] = assay: Insecticidal activity against Coptotermes formosanus assessed as mortality at 0.01 g/m2 after 48 hr relative to control
Coptotermes formosanus [22] = assay: Insecticidal activity against Coptotermes formosanus assessed as mortality at 0.00025 g/m2 after 48 hr relative to control
Coptotermes formosanus [23] = assay: Insecticidal activity against Coptotermes formosanus assessed as mortality at 0.00010 g/m2 after 24 hr relative to control
Coptotermes formosanus [24] = assay: Insecticidal activity against Coptotermes formosanus assessed as mortality at 0.00050 g/m2 after 48 hr relative to control
Coptotermes formosanus [25] = assay: Insecticidal activity against Coptotermes formosanus assessed as mortality at 0.00005 g/m2 after 48 hr relative to control
Coptotermes formosanus [26] = assay: Insecticidal activity against Coptotermes formosanus assessed as mortality at 0.00010 g/m2 after 48 hr relative to control
Coptotermes formosanus [27] = assay: Insecticidal activity against Coptotermes formosanus assessed as mortality at 0.00005 g/m2 after 24 hr relative to control
Coptotermes formosanus [28] = assay: Insecticidal activity against Coptotermes formosanus assessed as mortality at 0.00025 g/m2 after 24 hr relative to control
Coptotermes formosanus [29] = assay: Insecticidal activity against Coptotermes formosanus assessed as mortality at 0.00001 g/m2 after 48 hr relative to control
Coptotermes formosanus [30] = assay: Insecticidal activity against Coptotermes formosanus assessed as mortality at 0.00050 g/m2 after 24 hr relative to control
Coptotermes formosanus [31] = assay: Insecticidal activity against Coptotermes formosanus assessed as mortality at 0.00001 g/m2 after 24 hr relative to control

Compound | MIC (Fomitopsis dickinsii) [µg/mL] | MIC (Trametes versicolor) [µg/mL] | MIC (Trametes coccinea) [µg/mL] | MIC (Lenzites betulinus) [µg/mL] | MIC (Schizophyllum commune) [µg/mL] | mortality (Coptotermes formosanus [3]) [%] | mortality (Coptotermes formosanus [4]) [%] | mortality (Tyrophagus putrescentiae [5]) [%] | mortality (Tyrophagus putrescentiae [6]) [%] | mortality (Tyrophagus putrescentiae [7]) [%] | mortality (Coptotermes formosanus [8]) [%] | mortality (Coptotermes formosanus [9]) [%] | mortality (Coptotermes formosanus [10]) [%] | mortality (Coptotermes formosanus [11]) [%] | LC50 (Coptotermes formosanus [1]) [g/m2] | LC50 (Tyrophagus putrescentiae [2]) [g/m2] | mortality (Tyrophagus putrescentiae [14]) [%] | mortality (Tyrophagus putrescentiae [18]) [%] | mortality (Tyrophagus putrescentiae [19]) [%] | mortality (Tyrophagus putrescentiae [20]) [%] | also measured
CC(=O)Oc1cc(C(C)C)cccc1=O | – | – | – | – | – | – | – | – | – | – | – | – | – | – | – | – | – | – | – | – | growth inhibition (GI) (Fomitopsis dickinsii): inactive; growth inhibition (GI) (Trametes versicolor): inactive; growth inhibition (GI) (Trametes coccinea): inactive; Activity (Coptotermes formosanus [1]): inactive; Activity (Tyrophagus putrescentiae [2]): inactive; growth inhibition (GI) (Lenzites betulinus): inactive; growth inhibition (GI) (Schizophyllum commune): inactive
C[C@@H]1[C@H](O)[C@@H](C)/C=C/C=C/C=C/C=C/C=C/C=C/C=C/[C@H](O[C@@H]2O[C@H](C)[C@@H](O)[C@H](N)[C@@H]2O)C[C@@H]2O[C@](O)(C[C@@H](O)C[C@@H](O)[C@H](O)CC[C@@H](O)C[C@@H](O)CC(=O)O[C@H]1C)C[C@H](O)[C@H]2C(=O)O [AMPHOTERICIN B] | 0.39 (≈ 0.422 µM) | 0.39 (≈ 0.422 µM) | 0.78 (≈ 0.844 µM) | 0.39 (≈ 0.422 µM) | 0.39 (≈ 0.422 µM) | – | – | – | – | – | – | – | – | – | – | – | – | – | – | – | –
C=C(C)c1cccc(=O)c(O)c1 [BETA-DOLABRIN] | 0.2 (≈ 1.23 µM) | 6.25 (≈ 38.5 µM) | 25 (≈ 154 µM) | 12.5 (≈ 77.1 µM) | 12.5 (≈ 77.1 µM) | 100 | 95 | 100 | 90 | 100 | 0 | 40 | 0 | 100 | 0.05 | 0.02 | 31 | 100 | 91 | 0 | mortality (Coptotermes formosanus [12]): 0%; mortality (Coptotermes formosanus [13]): 11%; mortality (Coptotermes formosanus [15]): 100%; mortality (Coptotermes formosanus [16]): 0%; mortality (Coptotermes formosanus [17]): 100%; mortality (Coptotermes formosanus [21]): 0%
CCOP(=S)(OCC)Oc1nc(Cl)c(Cl)cc1Cl [CHLORPYRIFOS] | – | – | – | – | – | – | – | – | – | – | – | – | – | – | 0.00016 | – | – | – | – | – | mortality (Coptotermes formosanus [22]): 100%; mortality (Coptotermes formosanus [23]): 25%; mortality (Coptotermes formosanus [24]): 100%; mortality (Coptotermes formosanus [25]): 40%; mortality (Coptotermes formosanus [26]): 75%; mortality (Coptotermes formosanus [27]): 10%; mortality (Coptotermes formosanus [28]): 60%; mortality (Coptotermes formosanus [29]): 0%; mortality (Coptotermes formosanus [30]): 100%; mortality (Coptotermes formosanus [31]): 0%
CCN(CC)C(=O)c1cccc(C)c1 [DIETHYLTOLUAMIDE] | – | – | – | – | – | – | – | 18.9 | 0 | 4.5 | – | – | – | – | – | 0.79 | 0 | 67.1 | 0 | 0 | –
CC(C)c1ccc(O)c(=O)cc1 [GAMMA-THUJAPLICIN] | 0.2 (≈ 1.22 µM) | 6.25 (≈ 38.1 µM) | 25 (≈ 152 µM) | 12.5 (≈ 76.1 µM) | 12.5 (≈ 76.1 µM) | 100 | 100 | 100 | 84 | 100 | 10 | 20 | 11 | 100 | 0.05 | 0.02 | 51 | 100 | 66 | 0 | mortality (Coptotermes formosanus [12]): 0%; mortality (Coptotermes formosanus [13]): 32%; mortality (Coptotermes formosanus [15]): 100%; mortality (Coptotermes formosanus [16]): 0%; mortality (Coptotermes formosanus [17]): 100%; mortality (Coptotermes formosanus [21]): 5%
CC(C)c1cccc(=O)c(O)c1 [HINOKITIOL] | 0.2 (≈ 1.22 µM) | 12.5 (≈ 76.1 µM) | 12.5 (≈ 76.1 µM) | 12.5 (≈ 76.1 µM) | 12.5 (≈ 76.1 µM) | 100 | 100 | 91.3 | 11.9 | 33.6 | 40 | 50 | 20 | 100 | 0.07 | 0.246 | 0 | 100 | 0 | 0 | mortality (Coptotermes formosanus [12]): 10%; mortality (Coptotermes formosanus [13]): 50%; mortality (Coptotermes formosanus [15]): 100%; mortality (Coptotermes formosanus [16]): 0%; mortality (Coptotermes formosanus [17]): 100%; mortality (Coptotermes formosanus [21]): 0%
